Patent US10206394B2, “Herbicidal compounds” (Syngenta Participations AG, priority 2014, dated 2019)
Where two headings read alike, the source gives them in different places.

Columns and labels:
Test in all cases: Glasshouse assay for herbicidal activity (pre- and post-emergence), percentage phytotoxicity
Assay type in all cases: in vivo
[1] = test system: Lolium perenne (LOLPE); conditions: Lolium perenne
In short: (§1)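 Damage was rated visually as percent phytotoxicity, 100% meaning total kill, 20 days after pre-emergence application (made one day post-sowing) or 15 days after post-emergence application (made about 12 days post-sowing). Plants were grown under 16 h light, 65% humidity, warm species 24/18° C, cool 20/16° C.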

[2] = test system: Alopecurus myosuroides (ALOMY); conditions: Alopecurus myosuroides
In short: as §1

[3] = test system: Avena fatua (AVEFA); conditions: Avena fatua
In short: as §1

[4] = test system: Echinochloa crus-galli (ECHCG); conditions: Echinochloa crus-galli
In short: as §1

[5] = post-emergence, 360 h, Rate 250 g/ha, post-emergence, assessed visually 15 DAA, 100%=total damage, 0%=no damage, read-out: Post-emergence herbicidal activity (percentage phytotoxicity) LOLPE POST
[6] = post-emergence, 360 h, Rate 250 g/ha, post-emergence, assessed visually 15 DAA, 100%=total damage, 0%=no damage, read-out: Post-emergence herbicidal activity (percentage phytotoxicity) ALOMY POST
[7] = post-emergence, 360 h, Rate 250 g/ha, post-emergence, assessed visually 15 DAA, 100%=total damage, 0%=no damage, read-out: Post-emergence herbicidal activity (percentage phytotoxicity) AVEFA POST
[8] = post-emergence, 360 h, Rate 250 g/ha, post-emergence, assessed visually 15 DAA, 100%=total damage, 0%=no damage, read-out: Post-emergence herbicidal activity (percentage phytotoxicity) ECHCG POST
[9] = pre-emergence, 480 h, Rate 250 g/ha, pre-emergence, assessed visually 20 DAA, 100%=total damage, 0%=no damage, read-out: Pre-emergence herbicidal activity (percentage phytotoxicity) LOLPE PRE
[10] = pre-emergence, 480 h, Rate 250 g/ha, pre-emergence, assessed visually 20 DAA, 100%=total damage, 0%=no damage, read-out: Pre-emergence herbicidal activity (percentage phytotoxicity) ALOMY PRE
[11] = pre-emergence, 480 h, Rate 250 g/ha, pre-emergence, assessed visually 20 DAA, 100%=total damage, 0%=no damage, read-out: Pre-emergence herbicidal activity (percentage phytotoxicity) AVEFA PRE
[12] = pre-emergence, 480 h, Rate 250 g/ha, pre-emergence, assessed visually 20 DAA, 100%=total damage, 0%=no damage, read-out: Pre-emergence herbicidal activity (percentage phytotoxicity) ECHCG PRE
[13] = post-emergence, 360 h, 250 g/ha, post-emergence, 15 DAA, visual assessment (100%=total damage, 0%=no damage), read-out: Post-emergence herbicidal activity (percentage phytotoxicity) LOLPE POST
[14] = pre-emergence, 480 h, 250 g/ha, pre-emergence, 20 DAA, visual assessment (100%=total damage, 0%=no damage), read-out: Pre-emergence herbicidal activity (percentage phytotoxicity) LOLPE PRE
[15] = post-emergence, 360 h, 250 g/ha, post-emergence, 15 DAA, visual assessment (100%=total damage, 0%=no damage), read-out: Post-emergence herbicidal activity (percentage phytotoxicity) ALOMY POST
[16] = pre-emergence, 480 h, 250 g/ha, pre-emergence, 20 DAA, visual assessment (100%=total damage, 0%=no damage), read-out: Pre-emergence herbicidal activity (percentage phytotoxicity) ALOMY PRE
[17] = post-emergence, 360 h, 250 g/ha, post-emergence, 15 DAA, visual assessment (100%=total damage, 0%=no damage), read-out: Post-emergence herbicidal activity (percentage phytotoxicity) AVEFA POST
[18] = pre-emergence, 480 h, 250 g/ha, pre-emergence, 20 DAA, visual assessment (100%=total damage, 0%=no damage), read-out: Pre-emergence herbicidal activity (percentage phytotoxicity) AVEFA PRE
[19] = post-emergence, 360 h, 250 g/ha, post-emergence, 15 DAA, visual assessment (100%=total damage, 0%=no damage), read-out: Post-emergence herbicidal activity (percentage phytotoxicity) ECHCG POST
[20] = pre-emergence, 480 h, 250 g/ha, pre-emergence, 20 DAA, visual assessment (100%=total damage, 0%=no damage), read-out: Pre-emergence herbicidal activity (percentage phytotoxicity) ECHCG PRE

| Compound | pest or weed control at 250 g/ha [1, 5] | pest or weed control at 250 g/ha [2, 6] | pest or weed control at 250 g/ha [3, 7] | pest or weed control at 250 g/ha [4, 8] | pest or weed control at 250 g/ha [1, 9] | pest or weed control at 250 g/ha [2, 10] | pest or weed control at 250 g/ha [3, 11] | pest or weed control at 250 g/ha [4, 12] | pest or weed control at 250 g/ha [1, 13] | pest or weed control at 250 g/ha [1, 14] | pest or weed control at 250 g/ha [2, 15] | pest or weed control at 250 g/ha [2, 16] | pest or weed control at 250 g/ha [3, 17] | pest or weed control at 250 g/ha [3, 18] | pest or weed control at 250 g/ha [4, 19] | pest or weed control at 250 g/ha [4, 20] | also measured |
| --- | --- | --- | --- | --- | --- | --- | --- | --- | --- | --- | --- | --- | --- | --- | --- | --- | --- |
| Cc1cc(C)c(C2C(=O)CC(CC(=O)NCC#N)C2=O)c(C)c1 (centres unmarked) [Compound A83] | 30% | 50% | 10% | 70% |  |  |  |  |  |  |  |  |  |  |  |  |  |
| Cc1cc(-c2ncc(F)cn2)cc(C)c1C1C(=O)CC(CC(=O)NCc2cccs2)C1=O (centres unmarked) [Compound A141] | 90% | 90% | 100% | 100% | 100% | 90% | 90% | 100% |  |  |  |  |  |  |  |  |  |
| CC#Cc1cc(C)c(C2C(=O)CC(CC(=O)NC(C)CC)C2=O)c(C)c1 (centres unmarked) [Compound A33] | 100% | 100% | 100% | 100% | 100% | 100% | 100% | 100% |  |  |  |  |  |  |  |  |  |
| Cc1cc(C)c(C2C(=O)CC(CC(=O)NCc3cccc(Br)c3)C2=O)c(C)c1 (centres unmarked) [Compound B23] |  |  |  |  |  |  |  |  | 90% | 100% | 60% | 70% | 70% | 60% | 90% | 90% |  |
| Cc1cc(C)c(C2C(=O)CC(CC(=O)NC3CCc4ccccc43)C2=O)c(C)c1 (centres unmarked) [Compound A106] | 70% | 30% | 0% | 20% | 70% | 0% | 0% | 20% |  |  |  |  |  |  |  |  |  |
| Cc1cc(-c2ncc(F)cc2F)cc(C)c1C1C(=O)C[C@H](CC(=O)NC(C)(C)C)C1=O (some centres unmarked) [Compound B52] |  |  |  |  |  |  |  |  | 100% | 100% | 100% | 90% | 90% | 70% | 100% | 90% |  |
| CCCNC(=O)CC1CC(=O)C(c2c(C)cc(-c3ncc(Cl)cc3F)cc2C)C1=O (centres unmarked) [Compound B144] |  |  |  |  |  |  |  |  | 100% | 100% | 100% | 100% | 100% | 100% | 100% | 100% |  |
| Cc1cc(C)c(C2C(=O)CC(CC(=O)NC3CC(F)C3)C2=O)c(C)c1 (centres unmarked) [Compound A181] |  |  |  |  |  |  |  |  |  |  |  |  |  |  |  |  | pest or weed control at 250 g/ha ([1]; post-emergence, 360 h, post-emergence, 250 g/ha, 15 DAA, visual score (100%=total damage; 0%=no damage), read-out: LOLPE POST herbicidal activity (percentage phytotoxicity)): 100%; pest or weed control at 250 g/ha ([1]; pre-emergence, 480 h, pre-emergence, 250 g/ha, 20 DAA, visual score (100%=total damage; 0%=no damage), read-out: LOLPE PRE herbicidal activity (percentage phytotoxicity)): 100%; pest or weed control at 250 g/ha ([2]; post-emergence, 360 h, post-emergence, 250 g/ha, 15 DAA, visual score (100%=total damage; 0%=no damage), read-out: ALOMY POST herbicidal activity (percentage phytotoxicity)): 90%; pest or weed control at 250 g/ha ([2]; pre-emergence, 480 h, pre-emergence, 250 g/ha, 20 DAA, visual score (100%=total damage; 0%=no damage), read-out: ALOMY PRE herbicidal activity (percentage phytotoxicity)): 90%; pest or weed control at 250 g/ha ([3]; post-emergence, 360 h, post-emergence, 250 g/ha, 15 DAA, visual score (100%=total damage; 0%=no damage), read-out: AVEFA POST herbicidal activity (percentage phytotoxicity)): 90%; pest or weed control at 250 g/ha ([3]; pre-emergence, 480 h, pre-emergence, 250 g/ha, 20 DAA, visual score (100%=total damage; 0%=no damage), read-out: AVEFA PRE herbicidal activity (percentage phytotoxicity)): 90%; pest or weed control at 250 g/ha ([4]; post-emergence, 360 h, post-emergence, 250 g/ha, 15 DAA, visual score (100%=total damage; 0%=no damage), read-out: ECHCG POST herbicidal activity (percentage phytotoxicity)): 80%; pest or weed control at 250 g/ha ([4]; pre-emergence, 480 h, pre-emergence, 250 g/ha, 20 DAA, visual score (100%=total damage; 0%=no damage), read-out: ECHCG PRE herbicidal activity (percentage phytotoxicity)): 90% |
| Cc1cc(OCC(F)(F)F)cc(C)c1C1C(=O)CC(CC(=O)NCc2cccc(Cl)c2)C1=O (centres unmarked) [Compound B204] |  |  |  |  |  |  |  |  |  |  |  |  |  |  |  |  | pest or weed control at 250 g/ha ([1]; post-emergence, 360 h, POST-emergence, rate 250 g/ha, visual score 15 DAA (100%=total damage, 0%=no damage), read-out: Post-emergence herbicidal activity (percentage phytotoxicity) LOLPE POST): 90%; pest or weed control at 250 g/ha ([1]; pre-emergence, 480 h, PRE-emergence, rate 250 g/ha, visual score 20 DAA (100%=total damage, 0%=no damage), read-out: Pre-emergence herbicidal activity (percentage phytotoxicity) LOLPE PRE): 90%; pest or weed control at 250 g/ha ([2]; post-emergence, 360 h, POST-emergence, rate 250 g/ha, visual score 15 DAA (100%=total damage, 0%=no damage), read-out: Post-emergence herbicidal activity (percentage phytotoxicity) ALOMY POST): 100%; pest or weed control at 250 g/ha ([2]; pre-emergence, 480 h, PRE-emergence, rate 250 g/ha, visual score 20 DAA (100%=total damage, 0%=no damage), read-out: Pre-emergence herbicidal activity (percentage phytotoxicity) ALOMY PRE): 90%; pest or weed control at 250 g/ha ([3]; post-emergence, 360 h, POST-emergence, rate 250 g/ha, visual score 15 DAA (100%=total damage, 0%=no damage), read-out: Post-emergence herbicidal activity (percentage phytotoxicity) AVEFA POST): 100%; pest or weed control at 250 g/ha ([3]; pre-emergence, 480 h, PRE-emergence, rate 250 g/ha, visual score 20 DAA (100%=total damage, 0%=no damage), read-out: Pre-emergence herbicidal activity (percentage phytotoxicity) AVEFA PRE): 80%; pest or weed control at 250 g/ha ([4]; post-emergence, 360 h, POST-emergence, rate 250 g/ha, visual score 15 DAA (100%=total damage, 0%=no damage), read-out: Post-emergence herbicidal activity (percentage phytotoxicity) ECHCG POST): 100%; pest or weed control at 250 g/ha ([4]; pre-emergence, 480 h, PRE-emergence, rate 250 g/ha, visual score 20 DAA (100%=total damage, 0%=no damage), read-out: Pre-emergence herbicidal activity (percentage phytotoxicity) ECHCG PRE): 90% |
| Cc1cc(C)c(C2C(=O)CC(CC(=O)N(C)C(C)C)C2=O)c(C)c1 (centres unmarked) [Compound A161] | 90% | 70% | 30% | 80% | 100% | 20% | 30% | 100% |  |  |  |  |  |  |  |  |  |
| COc1cccc(CNC(=O)CC2CC(=O)C(c3c(C)cc(-c4ncc(Cl)cc4F)cc3C)C2=O)c1 (centres unmarked) [Compound B131] |  |  |  |  |  |  |  |  | 90% | 80% | 90% | 80% | 100% | 30% | 100% | 90% |  |
| Cc1cc(-c2ncc(Cl)cc2F)cc(C)c1C1C(=O)CC(CC(=O)NCC(C)C)C1=O (centres unmarked) [Compound B124] |  |  |  |  |  |  |  |  | 100% | 100% | 100% | 90% | 100% | 100% | 100% | 100% |  |
